# Laboratory results as given in US11207310B2 (PRILENIA NEUROTHERAPEUTICS LTD., priority 2016, dated 2021).
# Where two headings read alike, the source gives them in different places.
# Tested on: patients with HD
# Excerpt: The mPPT quantifies the patient's performance in physical tasks (Brown 2000). It is a standardized 9-item test (standing static balance, chair rise, lift a book and put it on a shelf, put on and remove a jacket, pick up a penny from floor, turn 360 degrees, 50 feet walk, climb one flight of stairs, climb stairs test (flights up and down)), that measures the patient's performance on functional tasks. Both the speed and accuracy at which the patients complete the items are taken into account during scoring. The maximum score of the test is 36, with higher scores indicating better performance. The Multiple Sclerosis Walking Scale (MSWS-12) was adapted to become a generic measure of walking and mobility and renamed the Walk-12.
# The secondary efficacy variable and endpoint, the Modified Physical Performance Test (mPPT), quantifies the patient's performance in physical tasks (Brown 2000). It is a standardized 9-item test that measures the patient's performance on functional tasks. Assistive devices are permitted for the tasks that require a standing position (items 6 to 9). Both the speed and accuracy at which the patients complete the items were taken into account during scoring. The maximum score of the test is 36, with higher scores indicating better performance.
# [1] = 67.5 mg bid, full analysis set, 52 weeks
# [2] = 67.5 mg bid, late stage HD patients with BL TFC<7, 52 weeks
# [3] = 90 mg bid, HD1 and HD2 patients, 52 weeks
# [4] = 90 mg bid, full analysis set, 26 weeks
# [5] = 90 mg bid, full analysis set, 52 weeks
# [6] = 90 mg bid, late stage HD patients with BL TFC<7, 52 weeks
# [7] = 112.5 mg bid, HD1 and HD2 patients, 52 weeks
# [8] = 112.5 mg bid, full analysis set, 26 weeks
# [9] = 112.5 mg bid, full analysis set, 52 weeks
# [10] = 112.5 mg bid, late stage HD patients with BL TFC<7, 52 weeks
structure (smiles),measurement,setting,value
"CCCN1CCC(c2cccc(S(C)(=O)=O)c2)CC1 [pridopidine, 4-[3-(methylsulfonyl)phenyl]-1-propyl-piperidine]","Δ to placebo: mPPT Turn 360 Degrees scores, change from baseline",[1],−0.1
same,Δ to placebo: mPPT standing static balance scores,[1],−0.19
same,"Change from baseline in mPPT Climb One Flight of Stairs scores, Δ to placebo","67.5 mg bid, late stage HD patients with BL TFC 0-6, 52 weeks",−0.3
same,"Change from baseline in mPPT Climb Stairs (Flights Up and Down) scores, Δ to placebo",[2],0.16
same,"Δ to placebo: mPPT Climb One Flight of Stairs scores, change from baseline",[2],−0.3
same,"Change from baseline in mPPT Climb One Flight of Stairs scores, Δ to placebo",[3],0.22
same,"Change from baseline in mPPT Climb Stairs (Flights Up and Down) scores, Δ to placebo",[3],0.1
same,"Change from baseline in mPPT Climb One Flight of Stairs scores, Δ to placebo","90 mg bid, HD1 patients, 52 weeks",−0.06
same,"Change from baseline in mPPT Climb One Flight of Stairs scores, Δ to placebo","90 mg bid, HD2 patients, 52 weeks",0.28
same,"Change from baseline in mPPT Climb Stairs (Flights Up and Down) scores, Δ to placebo",[4],−0.08
same,"Δ to placebo: mPPT 50 Feet Walk scores, change from baseline",[4],−0.1
same,Δ to placebo: mPPT Chair Rise scores,[4],0.01
same,"Δ to placebo: mPPT Climb One Flight of Stairs scores, change from baseline",[4],0.15
same,"Δ to placebo: mPPT Lift a Book and Put it on the Shelf scores, change from baseline",[4],0.04
same,"Δ to placebo: mPPT Pick up a Penny from the Floor scores, change from baseline",[4],0.1
same,"Δ to placebo: mPPT Put on and Remove a Jacket scores, change from baseline",[4],−0.01
same,"Δ to placebo: mPPT Turn 360 Degrees scores, change from baseline",[4],0.12
same,Δ to placebo: mPPT standing static balance scores,[4],−0.1
same,"Change from baseline in mPPT Climb Stairs (Flights Up and Down) scores, Δ to placebo",[5],−0.04
same,"Δ to placebo: mPPT 50 Feet Walk scores, change from baseline",[5],−0.23
same,Δ to placebo: mPPT Chair Rise scores,[5],−0.31
same,"Δ to placebo: mPPT Climb One Flight of Stairs scores, change from baseline",[5],0.08
same,"Δ to placebo: mPPT Lift a Book and Put it on the Shelf scores, change from baseline",[5],0.22
same,"Δ to placebo: mPPT Pick up a Penny from the Floor scores, change from baseline",[5],0.14
same,"Δ to placebo: mPPT Put on and Remove a Jacket scores, change from baseline",[5],0.08
same,"Δ to placebo: mPPT Turn 360 Degrees scores, change from baseline",[5],0.04
same,Δ to placebo: mPPT standing static balance scores,[5],−0.14
same,"Change from baseline in mPPT Climb One Flight of Stairs scores, Δ to placebo","90 mg bid, late stage HD patients with BL TFC 0-6, 52 weeks",−0.26
same,"Change from baseline in mPPT Climb Stairs (Flights Up and Down) scores, Δ to placebo",[6],−0.36
same,"Δ to placebo: mPPT Climb One Flight of Stairs scores, change from baseline",[6],−0.26
same,"Change from baseline in mPPT Climb One Flight of Stairs scores, Δ to placebo",[7],0.23
same,"Change from baseline in mPPT Climb Stairs (Flights Up and Down) scores, Δ to placebo",[7],0.07
same,"Change from baseline in mPPT Climb One Flight of Stairs scores, Δ to placebo","112.5 mg bid, HD1 patients, 52 weeks",0.18
same,"Change from baseline in mPPT Climb One Flight of Stairs scores, Δ to placebo","112.5 mg bid, HD2 patients, 52 weeks",0.23
same,"Change from baseline in mPPT Climb Stairs (Flights Up and Down) scores, Δ to placebo",[8],−0.08
same,"Δ to placebo: mPPT 50 Feet Walk scores, change from baseline",[8],−0.17
same,Δ to placebo: mPPT Chair Rise scores,[8],0.12
same,"Δ to placebo: mPPT Climb One Flight of Stairs scores, change from baseline",[8],0.16
same,"Δ to placebo: mPPT Lift a Book and Put it on the Shelf scores, change from baseline",[8],0.14
same,"Δ to placebo: mPPT Pick up a Penny from the Floor scores, change from baseline",[8],0.07
same,"Δ to placebo: mPPT Put on and Remove a Jacket scores, change from baseline",[8],−0.03
same,"Δ to placebo: mPPT Turn 360 Degrees scores, change from baseline",[8],0.2
same,Δ to placebo: mPPT standing static balance scores,[8],0.05
same,"Change from baseline in mPPT Climb Stairs (Flights Up and Down) scores, Δ to placebo",[9],0.1
same,"Δ to placebo: mPPT 50 Feet Walk scores, change from baseline",[9],−0.15
same,Δ to placebo: mPPT Chair Rise scores,[9],−0.12
same,"Δ to placebo: mPPT Climb One Flight of Stairs scores, change from baseline",[9],0.11
same,"Δ to placebo: mPPT Lift a Book and Put it on the Shelf scores, change from baseline",[9],0.12
same,"Δ to placebo: mPPT Pick up a Penny from the Floor scores, change from baseline",[9],0.07
same,"Δ to placebo: mPPT Put on and Remove a Jacket scores, change from baseline",[9],−0.18
same,"Δ to placebo: mPPT Turn 360 Degrees scores, change from baseline",[9],−0.08
same,Δ to placebo: mPPT standing static balance scores,[9],−0.12
same,"Change from baseline in mPPT Climb One Flight of Stairs scores, Δ to placebo","112.5 mg bid, late stage HD patients with BL TFC 0-6, 52 weeks",−0.15
same,"Change from baseline in mPPT Climb Stairs (Flights Up and Down) scores, Δ to placebo",[10],0.31
same,"Δ to placebo: mPPT Climb One Flight of Stairs scores, change from baseline",[10],−0.15
